Results: US8604161B2 (priority 2002, dated 2013)

Columns and labels:
PrPres = PrPres (Mesocricetus auratus, UniProt P04273); settings: for PrPres bound to resin in five 10 ml columns in series / removal of PrPres: 300 ml RBCC spiked with 0.1% scrapie hamster brain homogenate, Western blot of bead eluates; for Resin needed to remove all PrPres to the limit of detection of the Western blot: 300 ml spiked RBCC, 3 columns of 10 ml
PrPc = PrPc (Mesocricetus auratus, UniProt P04273); settings: 1% normal hamster brain homogenate, 0.5 ml column
Sequence of PrPc (P04273 23-231 limits assumed): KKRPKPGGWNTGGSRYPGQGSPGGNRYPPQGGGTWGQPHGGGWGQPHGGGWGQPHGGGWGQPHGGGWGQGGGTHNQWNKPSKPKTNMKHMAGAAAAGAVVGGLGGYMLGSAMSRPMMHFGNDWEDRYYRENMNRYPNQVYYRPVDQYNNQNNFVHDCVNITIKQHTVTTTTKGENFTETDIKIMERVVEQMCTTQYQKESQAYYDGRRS

haPrPc and haPrPsc = haPrPc and haPrPsc (Mesocricetus auratus, UniProt P04273); settings: 3-mer library, hamster brain homogenates
Sequence of haPrPc and haPrPsc (P04273 23-231 limits assumed): as above

Sequence of PrPres (P04273 23-231 limits assumed): as above

| Substance | PrPres bound to resin in five 10 ml columns in series / removal of PrPres (PrPres) | Location of bound PrPc on chopped resin beads (PrPc) | Preferential binding of PrPsc over PrPc (haPrPc and haPrPsc) | Resin needed to remove all PrPres to the limit of detection of the Western blot (PrPres) |
| --- | --- | --- | --- | --- |
| (D)ES(na)PRQ-EACA [SEQ ID NO:226] | decreasing amounts of PrPres on columns 1 through 3 | – | – | – |
| DVR [SEQ ID NO:114] | remove all of the PrPres to the limit of detection of the Western blot in 3 columns | protein bound to the exterior of the beads | bind preferentially PrPsc over PrPc | 30 mL |
| SYA [SEQ ID NO:108] | remove all of the PrPres to the limit of detection of the Western blot in 3 columns | – | – | 30 mL |
| VQR [SEQ ID NO:111] | – | – | bind preferentially PrPsc over PrPc | – |
| WFVEA [SEQ ID NO:225] | does not bind and remove all of the prion protein to the limit of detection | – | – | – |
| YVHEA [SEQ ID NO:63] | decreasing amounts of PrPres on columns 1 through 3 | – | – | – |
